Results on two compounds are retold here after patent US8362070B2, “Application of puerarin in the preparation of P2X3 mediated drugs for pain/nervous system diseases” (Nanchang University, priority 2009, dated 2013).

The structures appear in SMILES notation.

The subject of experiment [1] is rats that suffer from neuropathic pain (chronic constriction injury of sciatic nerve). The experiment in a line: Thermal hyperalgesia (thermal withdrawal latency) in rats with neuropathic pain (CCI). The following applies: for thermal withdrawal latency (TWL) in comparison with group III (CCI): CCI rats, puerarin i.p. 50 mg/mL, 4 mL/kg daily, idomethine 4 mg/kg/d i.p. (seven days after ligation), p<0.01. Format: in vivo, rat. How it is done:
Male SD rats, 220-250 g were provided by the Department of Experimental Animals from the Medical College of Nanchang University. The rats were divided into […] at random and 12 rats were included in each group. Experimental grouping: I (sham); II (puerarin); III (chronic constriction injuries, CCI); IV (CCI+puerarin); V (control); VI (CCI+Indo). The puerarin injection was dissolved in physiological saline and the concentration was 50 mg/mL. Group I were subjected to intraperitoneal injection of physiological saline (4 mL/kg); Group II were subjected to intraperitoneal injection of puerarin injection (4 mL/kg); Skins of the […] were cut open and their sciatic nerves were exposed, then their skin was sew up without ligating nerves. Group IV were subjected to intraperitoneal injection of puerarin injection (4 mL/kg) everyday on the first day after CCI operation. Intraperitoneal injection of idomethine (4 mg/kg/d) was carried out on the rats in […] half an hour before the operation and after the operation everyday, and the injection was carried out once a day until the test was finished.
Thiopental sodium was used to anesthetize the rats (30 mg/kg, intraperitoneal injection), and the skin in the outer side of right thighs of the rats was cut open under sterile conditions, and blunt dissection was carried out to isolate the sciatic nerves, then the sciatic nerves were slightly ligated with 4-0 chromicized catgut and four ligations were carried out in total, and an interval of about 1 mm was left between two knots. […] The rats were raised in separate cages after the operation, and mechanical withdrawal threshold and thermal withdrawal latency were determined before the operation (0 d) and 1, 3, 5, 7, 9, 11, 14 days after the operations respectively (Time for the determination is set at 10[…]00-14[…]100 everyday, and the room temperature was maintained at 22±0.5° C.).
The organic glass box was placed on a glass plate of 3 mm thick and BME-410C type automatic thermalgia stimulator (Institute of Biomedical Engineering, Chinese Academy of Medical Sciences) was used to irradiate the footplates of rats. The time for the appearance of leg withdrawal after the irradiation on footplates of rats by using the thermal radiation stimulator was considered as the thermal withdrawal latency (TWL). The time for cutting off was 30 seconds in order to prevent burn on tissues.

Experiment [2] has as its target T1, P2X3 receptor (Rattus norvegicus, UniProt P49654).
T1 construct: The method for neuron sample isolated from DRG of rats was briefly described as below; endogenous in cells; host or cells: acutely dissociated L4/L5 DRG neurons of SD rats
T1 sequence (P49654 1-397): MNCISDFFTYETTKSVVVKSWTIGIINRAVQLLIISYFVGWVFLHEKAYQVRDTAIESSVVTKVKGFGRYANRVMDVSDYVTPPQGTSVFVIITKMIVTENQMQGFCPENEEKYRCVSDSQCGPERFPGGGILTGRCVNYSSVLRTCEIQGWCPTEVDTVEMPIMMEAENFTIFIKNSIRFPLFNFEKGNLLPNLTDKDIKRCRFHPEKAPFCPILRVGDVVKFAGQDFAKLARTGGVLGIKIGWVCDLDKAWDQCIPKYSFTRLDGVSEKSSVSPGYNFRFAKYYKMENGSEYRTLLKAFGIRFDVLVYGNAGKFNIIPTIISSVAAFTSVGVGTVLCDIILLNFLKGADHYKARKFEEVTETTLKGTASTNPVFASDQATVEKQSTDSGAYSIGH
The experiment in a line: Whole-cell patch clamp of ATP or α,β-meATP activated current in DRG neurons of CCI rats. Format: cell-based. To be noted: for DRG neurons sensitive to exogenous ATP: ATP 1-1000 μmol/L; for α,β-meATP-activated electric current in DRG neurons: α,β-meATP 10 μmol/L. The text has this: The method for neuron sample isolated from DRG of rats was briefly described as below: the rats were knocked down and their skin in the back was cut open rapidly after decollation. The ribs that were connected to the spinal column at both sides were cut apart and the thoracolumbar spine was taken out and cut in half through the middle of the spine. The samples were kept in O2 saturated DMEM solution (Dubecco's Modified Eagle's medium), pH 7.40, and the osmotic pressure of this solution was 340 mOsm/kg. The sections L4 and L5 of nerve ganglion and connected nerve roots (dorsal nerve roots and ventral roots) as well as the spinal nerves were taken out inside the open vertebral canal, the connected nerves and adjacent connective tissue capsule were carefully removed by using fine corneal scissors and hairspring tweezer under an anatomical microscope, and the cleaned DRG should be cut into small pieces as far as possible and transferred to a culture flask, trypsin (type III, sigma) 0.5 g/L and collagenase (type IA, sigma) 1.0 g/L was then added, and the culture flask was incubated in a constant temperature shaking water bath (35 °C, 80 times/min) for 20-30 minutes, then proper amount of Soya beam trypsin inhibitor (type […]-s, Sigma) was added to stop the enzymatic digestion. The DRG cells after the above mentioned enzymatic and mechanical isolation were transferred to 35 mm culture dishes, and then they were kept still on the object stage of an inverted microscope for solution change for 30 minutes, subsequently the whole-cell patch clamp technique was utilized to record the effects of puerarin on ATP or α,β-meATP activated electric current. • (1) Carefully examining the connection and original setting of equipments in the experimental system. • (2) Turning on the power switch. • (3) Electrode installation: connecting the reference electrode, filling the glass electrode and then installing it on the electrode clamp holder. Notice: the electrode should not be over-filled; contacting the shielding can with hands before installing the electrodes in order to release the static electricity on the body. • (4) Phase boundary potential compensation and electrode resistance determination: filling solution in the microelectrode under the “searching” mode, adjusting the phase boundary potential compensation and measuring electrode resistance according to the responsive amplitude of electric current that was induced by pulsed voltage square wave. • (5) Cell sealing: adjusting the micro-operator to get the tip of the microelectrode close to the surface of the cell and a negative pressure is produced in the micro-electrode and thus the Giga-Ohm seal was formed. • (6) Rapid electric capacity compensation: adjusting the rapid electric capacity compensation and making the output signal free of ingredients of rapid electric capacitive current. • (7) Absorbing the cell membrane until it was disrupted: the working mode was switched to “forcipressure”. The membrane was absorbed until it was disrupted after the high resistance sealing was formed between the electrode and the cell (1-10 GΩ). The holding potential (H.P) was kept at −60 mV, and low pass membrane current was used (1 kHz, −3 dB). • (8) Slow capacitive compensation: adjusting the slow capacitive compensation and making the output signal free of ingredients of slow electric capacitive current. Tandem resistance compensation: adjusting the tandem resistance compensation until no shock was produced. The equipment for record of patch clamp was CEZ-2400 type patch clamp amplifier (Nihon-Kohden, Japan). The membrane was further absorbed until it was disrupted after the high resistance formed between the electrode and the cell membrane (1˜10 GΩ), and the capacitance and the tandem resistance compensation were adjusted. The holding potential (HP) was kept at −60 mV, low pass membrane current was used (1 kHz, −3 dB). The experimental results were traced by using the two-way recorder (LMS-2B, Chengdu). […]
For orientation: The patch-clamp technique gives a direct electrical read-out from membranes.

In experiment [3] the test system is P2X3 receptor. The experiment in a line: Immunohistochemistry of P2X3 receptor expression in skin nerve ending of rats with back burn. In kind it is in vivo, rat. The following applies: superficial second degree back burn + puerarin injection i.v. daily for three days; saline+burn 152.63±22.62, sham 118.76±18.48.

As for `COc1ccc2c(c1)c(CC(=O)O)c(C)n2C(=O)c1ccc(Cl)cc1` [Indocin, Indometacin], the “thermal withdrawal latency (TWL) in comparison with group III (CCI)” value in experiment [1] was “increased”. Besides, the “ATP-activated electric current in DRG neurons in comparison to CCI group” value at P2X3 receptor [2] (CCI rats + Indocin, p<0.05) is on record as “decreased”. In addition, at P2X3 receptor [2] (CCI rats + drug), the “DRG neurons sensitive to exogenous ATP” value turned out to be 89.7% and the “α,β-meATP-activated electric current in DRG neurons” value is recorded as “extremely low inward current”.

With `O=c1c(-c2ccc(O)cc2)coc2c([C@@H]3O[C@H](CO)[C@@H](O)[C@H](O)[C@H]3O)c(O)ccc12` [puerarin], the “thermal withdrawal latency, difference from group V (control) after 14 days” value in experiment [1] (CCI rats + puerarin, 14 days, p>0.05) was “not statistically significant”. Also, the “thermal withdrawal latency (TWL) in comparison with group III (CCI)” value in experiment [1] was “significantly increased”. In experiment [1] (puerarin alone, no CCI, p>0.05), the “thermal withdrawal latency, difference among sham, puerarin alone and control” value was “not significant”. Moreover, on P2X3 receptor [2] (CCI rats + drug), the “DRG neurons sensitive to exogenous ATP” value worked out at 87.5% and the “α,β-meATP-activated electric current in DRG neurons” value is listed as “extremely low inward current”. The “ATP-activated electric current in DRG neurons in comparison to the idomethine treatment group” value at P2X3 receptor [2] (CCI rats + puerarin, p<0.05) was “lower”. Moreover, the “ATP-activated electric current in DRG neurons, difference from groups I, II and V” value at P2X3 receptor [2] (CCI rats + puerarin, p>0.05) is given as “not significant”. On P2X3 receptor [2] (puerarin alone, no CCI), the “DRG neurons sensitive to exogenous ATP” value turned out to be 89.2% and the “α,β-meATP-activated electric current in DRG neurons” value is reported as “extremely low inward current”. Moreover, the “gray scale values (average optical density) of P2X3 immunologically positive nerve ending in the skin” value in the experiment on P2X3 receptor [3] amounted to 130.42±13.35.
